ChEMBL document CHEMBL2311410, “Facile regioselective synthesis of novel bioactive thiazolyl-pyrazoline derivatives via a three-component reaction and their antimicrobial activity” (2013)

Experiments:
Format in all cases: functional
Pseudomonas aeruginosa = test: Antimicrobial activity against Pseudomonas aeruginosa ATCC 27853 assessed as zone of inhibition after 24 hrs by agar well-diffusion method
Staphylococcus aureus = test: Antimicrobial activity against Staphylococcus aureus ATCC 29213 assessed as zone of inhibition after 24 hrs by agar well-diffusion method
Escherichia coli = test: Antimicrobial activity against Escherichia coli ATCC 25922 assessed as zone of inhibition after 24 hrs by agar well-diffusion method

Compound: Cc1ccc(C2=NN(c3nc(-c4ccccc4)cs3)C(c3ccc(C)cc3)C2)cc1 (configuration not stated)
- inhibition zone (IZ) (Pseudomonas aeruginosa): 16 mm
- inhibition zone (IZ) (Staphylococcus aureus): 7 mm
- inhibition zone (IZ) (Escherichia coli): 7 mm

Compound: GENTAMICIN
- inhibition zone (IZ) (Pseudomonas aeruginosa): 21 mm
- inhibition zone (IZ) (Staphylococcus aureus): 23 mm
- inhibition zone (IZ) (Escherichia coli): 22 mm

Compound: COc1ccc(C2C3CCc4ccccc4C3=NN2c2nc(-c3ccccc3)cs2)cc1 (configuration not stated)
- inhibition zone (IZ) (Pseudomonas aeruginosa): 9 mm
- inhibition zone (IZ) (Staphylococcus aureus): 8 mm

Compound: c1ccc(C2=NN(c3nc(-c4ccccc4)cs3)C(c3cccs3)C2)cc1 (configuration not stated)
- inhibition zone (IZ) (Pseudomonas aeruginosa): 19 mm
- inhibition zone (IZ) (Staphylococcus aureus): 9 mm

Compound: Clc1ccc(C2C3CCc4ccccc4C3=NN2c2nc(-c3ccccc3)cs2)cc1 (configuration not stated)
- inhibition zone (IZ) (Pseudomonas aeruginosa): 9 mm
- inhibition zone (IZ) (Escherichia coli): 7 mm

Compound: COc1ccc(C2CC(c3ccccc3)=NN2c2nc(-c3ccccc3)cs2)cc1 (configuration not stated)
- inhibition zone (IZ) (Pseudomonas aeruginosa): 7 mm
- inhibition zone (IZ) (Staphylococcus aureus): 6 mm

Compound: COc1ccc(C2=NN(c3nc(-c4ccccc4)cs3)C(c3ccc(C)cc3)C2)cc1 (configuration not stated)
- inhibition zone (IZ) (Pseudomonas aeruginosa): 17 mm
- inhibition zone (IZ) (Staphylococcus aureus): 7 mm

Compound: c1ccc(-c2csc(N3N=C4c5ccccc5CCC4C3c3cccs3)n2)cc1 (configuration not stated)
- inhibition zone (IZ) (Pseudomonas aeruginosa): 16 mm
- inhibition zone (IZ) (Escherichia coli): 8 mm

Compound: COc1ccc(C2=NN(c3nc(-c4ccccc4)cs3)C(c3ccc(OC)cc3)C2)cc1 (configuration not stated)
- inhibition zone (IZ) (Pseudomonas aeruginosa): 18 mm
- inhibition zone (IZ) (Escherichia coli): 8 mm

Compound: COc1ccc(C2CC(c3ccc(C)cc3)=NN2c2nc(-c3ccccc3)cs2)cc1 (configuration not stated)
- inhibition zone (IZ) (Pseudomonas aeruginosa): 19 mm
- inhibition zone (IZ) (Escherichia coli): 7 mm
